Experimental data taken from patent US20090233966A1, “Analogues of the Azinomycins as Anti-Tumour Agents and as Prodrugs” (School of Pharmacy, University of London, priority 2005, published 2009).

Tests used:
Test in all cases: NCI 60 cell panel growth inhibition
Assay type in all cases: cell-based, human
435 = conditions: Homo sapiens, 60 cell, BREAST, read-out: anti-tumour activity GI50
Description: (§1) Examples 6 and 7 make use of the NCl 60 cell panel. This is an in vitro cell line screening project providing direct support to the National Cancer Institute's USA Developmental Therapeutic Programme for anti cancer discovery. The methodolgy for the cell line's operation is described by Boyd et al in Drug Development Research 1995, 34, 91-109.

786-0 = conditions: Homo sapiens, RENAL, read-out: anti-tumour activity GI50
Description: as §1

A498 = conditions: Homo sapiens, RENAL, read-out: anti-tumour activity GI50
Description: as §1

A549/ATCC = conditions: Homo sapiens, NSCLC, read-out: anti-tumour activity GI50
Description: as §1

ACHN = conditions: Homo sapiens, RENAL, read-out: anti-tumour activity GI50
Description: as §1

BT-549 = conditions: Homo sapiens, BREAST, read-out: anti-tumour activity GI50
Description: as §1

CAKI-1 = conditions: Homo sapiens, RENAL, read-out: anti-tumour activity GI50
Description: as §1

CCRF-CEM = conditions: Homo sapiens, Leukemia, read-out: anti-tumour activity GI50
Description: as §1

COLO 205 = conditions: Homo sapiens, COLON, read-out: anti-tumour activity GI50
Description: as §1

DU-145 = conditions: Homo sapiens, PROST, read-out: anti-tumour activity GI50
Description: as §1

EKVX = conditions: Homo sapiens, NSCLC, read-out: anti-tumour activity GI50
Description: as §1

HCC2998 = conditions: Homo sapiens, HCC 2998, COLON, read-out: anti-tumour activity GI50
Description: as §1

HL-60(TB) = conditions: Homo sapiens, Leukemia, read-out: anti-tumour activity GI50
Description: as §1

HOP-62 = conditions: Homo sapiens, NSCLC, read-out: anti-tumour activity GI50
Description: as §1

HOP-92 = conditions: Homo sapiens, NSCLC, read-out: anti-tumour activity GI50
Description: as §1

HS 578T = conditions: Homo sapiens, BREAST, read-out: anti-tumour activity GI50
Description: as §1

HT29 = conditions: Homo sapiens, HT-29, COLON, read-out: anti-tumour activity GI50
Description: as §1

IGROV1 = conditions: Homo sapiens, IGROV-1, OVAR, read-out: anti-tumour activity GI50
Description: as §1

KM12 = conditions: Homo sapiens, COLON, read-out: anti-tumour activity GI50
Description: as §1

LOX IMVI = conditions: Homo sapiens, MELAN, read-out: anti-tumour activity GI50
Description: as §1

M14 = conditions: Homo sapiens, MELAN, read-out: anti-tumour activity GI50
Description: as §1

MALME-3M = conditions: Homo sapiens, MELAN, read-out: anti-tumour activity GI50
Description: as §1

MCF7 = conditions: Homo sapiens, BREAST, read-out: anti-tumour activity GI50
Description: as §1

MDA-MB-231/ATCC = conditions: Homo sapiens, BREAST, read-out: anti-tumour activity GI50
Description: as §1

MOLT-4 = conditions: Homo sapiens, Leukemia, read-out: anti-tumour activity GI50
Description: as §1

NCI-H322M = conditions: Homo sapiens, NSCLC, read-out: anti-tumour activity GI50
Description: as §1

NCI-H460 = conditions: Homo sapiens, NSCLC, read-out: anti-tumour activity GI50
Description: as §1

NCI-H522 = conditions: Homo sapiens, NSCLC, read-out: anti-tumour activity GI50
Description: as §1

NCI/ADRRES = conditions: Homo sapiens, NCI/ADR-RES, BREAST, read-out: anti-tumour activity GI50
Description: as §1

OVCAR-3 = conditions: Homo sapiens, OVAR, read-out: anti-tumour activity GI50
Description: as §1

OVCAR-4 = conditions: Homo sapiens, OVAR, read-out: anti-tumour activity GI50
Description: as §1

OVCAR-5 = conditions: Homo sapiens, OVAR, read-out: anti-tumour activity GI50
Description: as §1

OVCAR-8 = conditions: Homo sapiens, OVAR, read-out: anti-tumour activity GI50
Description: as §1

PC-3 = conditions: Homo sapiens, PROST, read-out: anti-tumour activity GI50
Description: as §1

RPMI-8226 = conditions: Homo sapiens, Leukemia, read-out: anti-tumour activity GI50
Description: as §1

SF-295 = conditions: Homo sapiens, CNS, read-out: anti-tumour activity GI50
Description: as §1

SK-MEL-28 = conditions: Homo sapiens, MELAN, read-out: anti-tumour activity GI50
Description: as §1

SK-MEL-2 = conditions: Homo sapiens, MELAN, read-out: anti-tumour activity GI50
Description: as §1

SK-MEL-5 = conditions: Homo sapiens, MELAN, read-out: anti-tumour activity GI50
Description: as §1

SKOV-3 = conditions: Homo sapiens, SK-OV-3, OVAR, read-out: anti-tumour activity GI50
Description: as §1

SN12C = conditions: Homo sapiens, RENAL, read-out: anti-tumour activity GI50
Description: as §1

SNB-19 = conditions: Homo sapiens, CNS, read-out: anti-tumour activity GI50
Description: as §1

SR = conditions: Homo sapiens, Leukemia, read-out: anti-tumour activity GI50
Description: as §1

T-47D = conditions: Homo sapiens, T47D, BREAST, read-out: anti-tumour activity GI50
Description: as §1

U251 = conditions: Homo sapiens, U-251, CNS, read-out: anti-tumour activity GI50
Description: as §1

UCC-62 = conditions: Homo sapiens, 60 cell, MELAN, read-out: anti-tumour activity GI50
Description: as §1

C=C(C)[C@H](OC(=O)c1cc(OC)cc2c(C)cccc12)C(=O)NCCN1CCCC(Cl)C1 (stereo partly shown) [Compound 21]
GI50 435: 7.62 µM
GI50 (786-0): 4.48 µM
GI50 (A498): 0.19 µM
GI50 (A549/ATCC): 8.26 µM
GI50 (ACHN): 1.78 µM
GI50 (BT-549): 4.55 µM
GI50 (CAKI-1): 5.66 µM
GI50 (CCRF-CEM): 3.24 µM
GI50 (COLO 205): 6.08 µM
GI50 (DU-145): 5.15 µM
GI50 (EKVX): 11.4 µM
GI50 (HCC2998): 4.27 µM
GI50 (HL-60(TB)): 12.1 µM
GI50 (HOP-62): 3.45 µM
GI50 (HOP-92): 4.12 µM
GI50 (HS 578T): 3.69 µM
GI50 (HT29): 7.26 µM
GI50 (IGROV1): 4.21 µM
GI50 (KM12): 9.3 µM
GI50 (LOX IMVI): 2.84 µM
GI50 (M14): 1.75 µM
GI50 (MALME-3M): 7.51 µM
GI50 (MCF7): 4.62 µM
GI50 (MDA-MB-231/ATCC): 11 µM
GI50 (MOLT-4): 3.3 µM
GI50 (NCI-H322M): 8.07 µM
GI50 (NCI-H460): 6.26 µM
GI50 (NCI-H522): 5.1 µM
GI50 (NCI/ADRRES): 12.8 µM
GI50 (OVCAR-3): 10.2 µM
GI50 (OVCAR-4): 20.9 µM
GI50 (OVCAR-5): 11.1 µM
GI50 (OVCAR-8): 32.9 µM
GI50 (PC-3): 7.96 µM
GI50 (RPMI-8226): 3.43 µM
GI50 (SF-295): 4.35 µM
GI50 (SK-MEL-28): 8.48 µM
GI50 (SK-MEL-2): 7.81 µM
GI50 (SK-MEL-5): 1.99 µM
GI50 (SKOV-3): 17.2 µM
GI50 (SN12C): 3.76 µM
GI50 (SNB-19): 5.63 µM
GI50 (SR): 2.34 µM
GI50 (T-47D): 10.8 µM
GI50 (U251): 2.63 µM
GI50 (UCC-62): 4.41 µM
